Laboratory results: US9605002B2, “5,5-heteroaromatic anti-infective compounds” (priority 2012, dated 2017)
Converted amounts (≈) assume the structure as drawn.

Key:
[1] = test system: M. tuberculosis (Mtb) H37Rv; test: Microplate Alamar Blue Assay (MABA), GAS media, replicating Mtb; assay type: cell-based, Mycobacterium tuberculosis; conditions: Mycobacterium tuberculosis; GAS (glycerol-alanine-salt) media, replicating H37Rv; read-out: GAS media: replicating H37Rv Mtb: MIC 90
[2] = test system: M. tuberculosis (Mtb) H37Rv; test: Microplate Alamar Blue Assay (MABA), 7H12 media, replicating Mtb; assay type: cell-based; conditions: Mycobacterium tuberculosis, 7H12 media (no glycerol), read-out: 7H12 media: Replicating H37Rv Mtb: MIC 90
[3] = test system: VERO kidney epithelial cells; test: VERO toxicity assessment; conditions: Chlorocebus sabaeus, Vero, read-out: VERO: IC50

SMILES	MIC90 [1] [µM]	MIC90 [2] [µM]	IC50 [3] [µM]
Cc1nc2sc(C(F)(F)F)cn2c1C(=O)NCc1ccc(N(C)C)cc1 [ND-020024]	< 2	2 to 10 (≈ 0.765 to 3.82 µg/mL)	< 32
Cc1cn2c(C(=O)NCc3ccc(N(C)C)cc3)c(C(F)(F)F)nc2s1 [ND-020025]	< 2	2 to 10 (≈ 0.765 to 3.82 µg/mL)	< 32
CCc1nc2sc(C)cn2c1C(=O)NCc1ccc(N(C)C)cc1 [ND-020026]	< 2	< 2	< 32
COc1ccc(CNC(=O)c2c(C)nc3sc(C)cn23)cc1 [ND-020027]	< 2	< 2	< 32
CCOc1ccc(CNC(=O)c2c(C)nc3sc(C)cn23)cc1 [ND-020028]	< 2	< 2	< 32
CCOc1cccc(CNC(=O)c2c(C)nc3sc(C)cn23)c1 [ND-020029]	< 2	< 2	< 32
Cc1cn2c(C(=O)NCc3cccc(OC(C)C)c3)c(C)nc2s1 [ND-020030]	< 2	< 2	< 32
Cc1cn2c(C(=O)NCc3ccc(C(C)(C)C)cc3)c(C)nc2s1 [ND-020031]	< 2	< 2	< 32
Cc1cn2c(C(=O)NCc3cccc(N4CCOCC4)c3)c(C)nc2s1 [ND-020032]	< 2	2 to 10 (≈ 0.741 to 3.7 µg/mL)	< 32
Cc1cn2c(C(=O)NCc3ccc(N4CCOCC4)cc3)c(C)nc2s1 [ND-020033]	< 2	2 to 10 (≈ 0.741 to 3.7 µg/mL)	20 to 32
Cc1cn2c(C(=O)NCc3ccc(N4CCOCC4)c(F)c3)c(C)nc2s1 [ND-020034]	< 2	2 to 10 (≈ 0.777 to 3.88 µg/mL)	< 32
Cc1cn2c(C(=O)NCc3ccc(N4CCOCC4)c(Cl)c3)c(C)nc2s1 [ND-020035]	< 2	< 2	20 to 32
Cc1cn2c(C(=O)NCc3cccc(N4CCOCC4)n3)c(C)nc2s1 [ND-020036]	< 2	2 to 10 (≈ 0.743 to 3.71 µg/mL)	< 32
CCc1nc2sc(C)cn2c1C(=O)NCc1ccc(N2CCOCC2)c(F)c1 [ND-020037]	< 2	2 to 10 (≈ 0.805 to 4.02 µg/mL)	< 32
Cc1nc2sc(C(F)(F)F)cn2c1C(=O)NCc1ccc(N2CCOCC2)c(F)c1 [ND-020038]	2 to 10	2 to 10 (≈ 0.885 to 4.42 µg/mL)	< 32
Cc1nc2sc(Cl)cn2c1C(=O)NCc1ccc(N2CCOCC2)c(F)c1 [ND-020039]	< 2	< 2	< 32

SMILES	MIC90 [1] [µM]	MIC90 [2] [µM]	IC50 [3] [µM]
Cc1cn2c(C(=O)Nc3ccc(Oc4ccc(C(F)(F)F)cc4)cc3)c(C)nc2s1 [ND-020040]	< 2	< 2	< 32
Cc1nc2sc(Cl)cn2c1C(=O)Nc1ccc(Oc2ccc(C(F)(F)F)cc2)cc1 [ND-020041]	< 2	< 2	< 32
Cc1cn2c(C(=O)Nc3ccc(-c4ccc(C(F)(F)F)cc4)cc3)c(C)nc2s1 [ND-020042]	< 2	2 to 10 (≈ 0.831 to 4.15 µg/mL)	< 32
CCc1nc2sc(C)cn2c1C(=O)NCc1ccc(-c2ccc(C(F)(F)F)cc2)cc1 [ND-020043]	< 2	2 to 10 (≈ 0.887 to 4.43 µg/mL)	< 32
Cc1cn2c(C(=O)Nc3ccc(-c4ccc(C(F)(F)F)cc4)nc3)c(C)nc2s1 [ND-020044]	2 to 10	2 to 10 (≈ 0.833 to 4.16 µg/mL)	< 32
Cc1cn2c(C(=O)NCc3cccc(N4CCC(c5ccc(F)cc5)CC4)c3)c(C)nc2s1 [ND-020045]	< 2	2 to 10 (≈ 0.925 to 4.63 µg/mL)	20 to 32
CCc1nc2sc(C)cn2c1C(=O)NCc1ccc(N2CCC(c3ccc(F)cc3)CC2)cc1 [ND-020046]	< 2	< 2	10 to 20
Cc1cn2c(C(=O)NCc3cccc(N4CCN(c5ccc(F)cc5)CC4)c3)c(C)nc2s1 [ND-020047]	< 2	2 to 10 (≈ 0.927 to 4.64 µg/mL)	20 to 32
CCc1nc2sc(C)cn2c1C(=O)NCc1ccc(N2CCN(c3ccc(F)cc3)CC2)cc1 [ND-020048]	< 2	< 2	10 to 20
Cc1cn2c(C(=O)NCc3ccc4ocnc4c3)c(C)nc2s1 [ND-020049]	< 2	< 2	< 32
CC1=Nn2c(nc(C)c2C(=O)NCc2ccc(Oc3ccc(F)cc3)cc2)C1 [ND-020050]	< 2	2 to 10 (≈ 0.757 to 3.78 µg/mL)	20 to 32
Cc1nn2c(C(=O)NCc3ccc(Oc4ccc(F)cc4)cc3)c(C)nc2o1 [ND-020051]	2 to 10	2 to 10 (≈ 0.761 to 3.8 µg/mL)	20 to 32
Cc1nn2c(C(=O)NCc3ccc(Oc4ccc(F)cc4)cc3)c(C)nc2s1 [ND-020052]	< 2	2 to 10 (≈ 0.793 to 3.96 µg/mL)	20 to 32
CCc1nc2sc(Cl)cn2c1C(=O)NCc1ccc(Oc2ccc(Cl)cc2)cc1 [ND-020053]	< 2	< 2	20 to 32
CCc1nc2sc(C)cn2c1C(=O)NCc1ccc(Oc2ccc(C(F)(F)F)cc2)cc1 [ND-020054]	< 2	< 2	20 to 32
Cc1cn2c(C(=O)NCc3ccc(Oc4ccc(C(F)(F)F)cc4)cc3)c(C)nc2s1 [ND-020055]	< 2	< 2	20 to 32
